In PubChem BioAssay (NCI):
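Method: 48-hour compound exposure of cells in 96-well plates, five concentrations, linear interpolation of endpoints. At the GI50, growth is halved. At the TGI there is no net growth.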

Key:
Test in all cases: NCI anticancer screen, dose series, 48 h
[1] = test system: UACC-257 melanoma
[2] = test system: OVCAR-3 ovarian
[3] = test system: CCRF-CEM leukemia
[4] = test system: U251 CNS
[5] = test system: DU-145 prostate
[6] = test system: MCF7 breast
[7] = test system: SNB-19 CNS
[8] = test system: HOP-92 NSCLC
[9] = test system: K-562 leukemia
[10] = test system: NCI-H460 lung
[11] = test system: NCI-H522 lung
[12] = test system: NCI-H23 lung
[13] = test system: NCI/ADR-RES ovarian
[14] = test system: SR leukemia
[15] = test system: MALME-3M melanoma
[16] = test system: A549 NSCLC
[17] = test system: HCT-116 colon
[18] = test system: HOP-62 NSCLC
[19] = test system: SK-MEL-2 melanoma
[20] = test system: RPMI-8226 leukemia
[21] = test system: HL-60(TB) leukemia
[22] = test system: ACHN renal
[23] = test system: UO-31 renal
[24] = test system: TK-10 renal
[25] = test system: LOX IMVI melanoma
[26] = test system: HCT-15 colon
[27] = test system: BT-549 breast
[28] = test system: OVCAR-8 ovarian
[29] = test system: SF-268 CNS
[30] = test system: OVCAR-5 ovarian
[31] = test system: EKVX NSCLC
[32] = test system: UACC-62 melanoma
[33] = test system: IGROV1 ovarian
[34] = test system: MDA-MB-231 breast
[35] = test system: SK-OV-3 ovarian
[36] = test system: SF-539 CNS
[37] = test system: A498 renal
[38] = test system: MDA-MB-435
[39] = test system: HS 578T breast
[40] = test system: KM12 colon
[41] = test system: M14 melanoma
[42] = test system: SNB-75 CNS
[43] = test system: NCI-H226 lung
[44] = test system: SN12C renal
[45] = test system: 786-0 renal
[46] = test system: HT29 colon
[47] = test system: SK-MEL-5 melanoma
[48] = test system: PC-3 prostate
[49] = test system: RXF 393 renal
[50] = test system: MOLT-4 leukemia
[51] = test system: SF-295 CNS
[52] = test system: SK-MEL-28 melanoma
[53] = test system: CAKI-1 renal
[54] = test system: OVCAR-4 ovarian
[55] = test system: HCC-2998 colon
[56] = test system: COLO 205 colon
[57] = test system: T-47D breast
[58] = test system: SW-620 colon
[59] = test system: MDA-MB-468 breast

## Cc1sc2c(c1C)C(c1ccc(Cl)cc1)=N[C@@H](CC(=O)NCCCCCNC(=O)COc1ccc(C3CCC(=O)NC3=O)cc1)c1nnc(C)n1-2 (stereo not given in full)
[1]
  GI50: > 26.3 µM
  TGI: > 100 µM
[2]
  GI50: 2.3 µM
  TGI: > 100 µM
[3]
  GI50: 0.0519 µM
  TGI: > 100 µM
[4]
  GI50: 3.09 µM
  TGI: > 100 µM
[5]
  GI50: > 100 µM
  TGI: > 100 µM
[6]
  GI50: 0.0397 µM
  TGI: > 100 µM
[7]
  GI50: 0.438 µM
  TGI: > 100 µM
[8]
  GI50: 0.0619 µM
[9]
  GI50: 0.565 µM
  TGI: > 100 µM
[10]
  GI50: 47.4 µM
  TGI: > 100 µM
[11]
  GI50: 4.37 µM
  TGI: > 100 µM
[12]
  GI50: 13.1 µM
  TGI: > 100 µM
[13]
  GI50: > 100 µM
  TGI: > 100 µM
[14]
  GI50: 0.0645 µM
  TGI: > 100 µM
[15]
  GI50: 0.788 µM
  TGI: > 100 µM
[16]
  GI50: 3.96 µM
  TGI: > 100 µM
[17]
  GI50: 1.69 µM
  TGI: > 100 µM
[18]
  GI50: 0.644 µM
  TGI: > 100 µM
[19]
  GI50: 0.371 µM
  TGI: > 100 µM
[20]
  GI50: 0.038 µM
  TGI: 1.12 µM
[21]
  TGI: 0.0995 µM
[22]
  GI50: 20.7 µM
  TGI: > 100 µM
[23]
  GI50: 3.2 µM
  TGI: 53.9 µM
[24]
  GI50: 1.7 µM
  TGI: > 40.9 µM
[25]
  GI50: 1.48 µM
  TGI: > 42.9 µM
[26]
  GI50: 3.77 µM
  TGI: > 89.5 µM
[27]
  GI50: 0.0547 µM
  TGI: 0.541 µM
[28]
  GI50: 0.298 µM
  TGI: > 100 µM
[29]
  GI50: 0.629 µM
  TGI: > 100 µM
[30]
  GI50: 0.795 µM
  TGI: > 100 µM
[31]
  GI50: 2.5 µM
  TGI: > 100 µM
[32]
  GI50: 0.429 µM
  TGI: > 100 µM
[33]
  GI50: 0.269 µM
  TGI: > 100 µM
[34]
  GI50: 0.0908 µM
  TGI: > 100 µM
[35]
  GI50: 3.31 µM
  TGI: > 100 µM
[36]
  GI50: 0.439 µM
  TGI: > 100 µM
[37]
  GI50: 6.27 µM
  TGI: > 100 µM
[38]
  GI50: 0.171 µM
  TGI: > 100 µM
[39]
  GI50: 0.154 µM
  TGI: > 100 µM
[40]
  GI50: 0.483 µM
  TGI: > 100 µM
[41]
  GI50: 1.01 µM
  TGI: > 100 µM
[42]
  GI50: < 0.0189 µM
  TGI: 0.389 µM
[43]
  GI50: 0.476 µM
  TGI: > 100 µM
[44]
  GI50: 0.293 µM
  TGI: > 100 µM
[45]
  GI50: 2.08 µM
  TGI: > 100 µM
[46]
  GI50: 0.95 µM
  TGI: > 100 µM
[47]
  GI50: 0.345 µM
  TGI: 3.45 µM
[48]
  GI50: 0.134 µM
  TGI: > 100 µM
[49]
  GI50: 2.17 µM
  TGI: > 100 µM
[50]
  GI50: 0.113 µM
  TGI: > 100 µM
[51]
  GI50: 3.11 µM
  TGI: > 100 µM
[52]
  GI50: 0.901 µM
  TGI: > 100 µM
[53]
  GI50: 0.845 µM
  TGI: > 100 µM

## O=C(/C=C/c1ccc(Cl)cc1)c1nc2ccccc2n1Cc1ccc(F)cc1
[1]
  GI50: 19.5 µM
  TGI: 86.8 µM
[2]
  GI50: 5.05 µM
  TGI: 22.2 µM
[3]
  GI50: 4.12 µM
  TGI: > 100 µM
[4]
  GI50: 10.3 µM
  TGI: 25.2 µM
[5]
  GI50: 16.5 µM
  TGI: 63.3 µM
[6]
  GI50: 3.76 µM
  TGI: 76.4 µM
[7]
  GI50: 14.7 µM
  TGI: 33 µM
[8]
  GI50: 7.12 µM
  TGI: 79.7 µM
[9]
  GI50: 6.18 µM
  TGI: > 100 µM
[10]
  GI50: 11 µM
  TGI: 28.4 µM
[11]
  GI50: 13.7 µM
  TGI: 31.4 µM
[12]
  GI50: 14.4 µM
  TGI: 36.8 µM
[54]
  GI50: 23.4 µM
  TGI: > 100 µM
[14]
  GI50: 5.12 µM
  TGI: > 100 µM
[55]
  GI50: 14.7 µM
  TGI: 28.5 µM
[15]
  GI50: 15.2 µM
  TGI: 34.3 µM
[16]
  GI50: 22.9 µM
  TGI: > 100 µM
[17]
  GI50: 11.8 µM
  TGI: 25.2 µM
[18]
  GI50: 14.8 µM
  TGI: 36.8 µM
[19]
  GI50: 14.5 µM
  TGI: 40.1 µM
[56]
  GI50: 14.8 µM
  TGI: 32.9 µM
[20]
  GI50: 4.59 µM
  TGI: 53 µM
[21]
  GI50: 9.53 µM
  TGI: 47.1 µM
[22]
  GI50: 17.7 µM
  TGI: 51.4 µM
[57]
  GI50: 5.89 µM
  TGI: 33.9 µM
[23]
  GI50: 9.9 µM
  TGI: 22 µM
[24]
  GI50: 20 µM
  TGI: 75.8 µM
[25]
  GI50: 4.97 µM
  TGI: 18.1 µM
[26]
  GI50: 7.86 µM
  TGI: 23.4 µM
[27]
  GI50: 11.8 µM
  TGI: 30.4 µM
[28]
  GI50: 13.9 µM
  TGI: 42.5 µM
[29]
  GI50: 19.2 µM
  TGI: > 100 µM
[30]
  GI50: 17.5 µM
  TGI: 37.2 µM
[31]
  GI50: 17.5 µM
  TGI: 44.9 µM
[58]
  GI50: 8.58 µM
  TGI: 28.6 µM
[32]
  GI50: 13.2 µM
  TGI: 30.5 µM
[59]
  GI50: 10.4 µM
  TGI: 28 µM
[33]
  GI50: 14.5 µM
  TGI: 41.9 µM
[34]
  GI50: 16.4 µM
  TGI: 42 µM
[35]
  GI50: 41.2 µM
  TGI: > 100 µM
[36]
  GI50: 14.1 µM
  TGI: 27.9 µM
[37]
  GI50: > 100 µM
  TGI: > 100 µM
[38]
  GI50: 11.4 µM
  TGI: 29.4 µM
[39]
  GI50: 19.8 µM
  TGI: > 100 µM
[40]
  GI50: 11.9 µM
  TGI: 45.7 µM
[41]
  GI50: 14.1 µM
  TGI: 32 µM
[42]
  GI50: 2.9 µM
  TGI: > 100 µM
[43]
  GI50: 20.8 µM
  TGI: 62.1 µM
[44]
  GI50: 18.7 µM
  TGI: 70.9 µM
[45]
  GI50: 13.2 µM
  TGI: 28.9 µM
[46]
  GI50: 13.1 µM
  TGI: 31.5 µM
[47]
  GI50: 15.2 µM
  TGI: 36.2 µM
[48]
  GI50: 14.3 µM
  TGI: 58.5 µM
[49]
  GI50: 7.71 µM
  TGI: 21.7 µM
[50]
  GI50: 4.15 µM
  TGI: > 100 µM
[51]
  GI50: 14.3 µM
  TGI: 33.9 µM
[52]
  GI50: 14.9 µM
  TGI: 32.5 µM
[53]
  GI50: 7.89 µM
  TGI: 43 µM
